Measurements from the supplement of paper PMC10307832.

Columns and labels:
Assay in all cases: relative viability (nuclei count vs DMSO), 5 days (fraction); higher = more cells survive
[1] = compound: C1=CC2=C(C=C(C(=C2N=C1)O)N=NC3=CC4=C(C=C3)C=C(C=C4)S(=O)(=O)O)S(=O)(=O)O + CC(C)C[C@H](NC(=O)[C@H](Cc1ccccc1)NC(=O)c1cnccn1)B(O)O [Bortezomib] (partner 0.002 µM)
How it was run: (§1)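 Lung cancer cell lines were seeded in 1536-well plates and dosed by pin tool the next day, with either a single drug or a fixed anchor-drug dose combined with five library-drug doses (not always all listed) spaced in √10 steps. Five days later, one step fixed the cells and stained their nuclei (final 0.05% Triton X-100, 1% formaldehyde, 1 ug/ml Hoechst), and nuclei were counted on 4× images. Relative viability is the nuclei count in treated wells divided by the count in vehicle wells, and each value is the median of duplicate plates.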

[2] = compound: C1=CC2=C(C=C(C(=C2N=C1)O)N=NC3=CC4=C(C=C3)C=C(C=C4)S(=O)(=O)O)S(=O)(=O)O + C[C@]1(O)C[C@@H](c2nc(-c3ccc4ccc(-c5ccccc5)nc4c3)c3c(N)nccn32)C1 [Linsitinib] (partner 1 µM)
How it was run: as §1

AT-7519 + Palbociclib = compound: O=C(NC1CCNCC1)c1n[nH]cc1NC(=O)c1c(Cl)cccc1Cl [AT-7519] + CC(=O)c1c(C)c2cnc(Nc3ccc(N4CCNCC4)cn3)nc2n(C2CCCC2)c1=O [Palbociclib] (partner 0.5 µM)
How it was run: as §1

AT-7519 + Dasatinib = compound: O=C(NC1CCNCC1)c1n[nH]cc1NC(=O)c1c(Cl)cccc1Cl [AT-7519] + Cc1nc(Nc2ncc(C(=O)Nc3c(C)cccc3Cl)s2)cc(N2CCN(CCO)CC2)n1 [Dasatinib] (partner 0.075 µM)
How it was run: as §1

| Cell Line | relative viability ([1]; first compound 0.08 µM) | relative viability ([1]; first compound 0.253 µM) | relative viability ([1]; first compound 0.8 µM) | relative viability ([1]; first compound 2.53 µM) | relative viability ([1]; first compound 8 µM) | relative viability ([2]; first compound 0.08 µM) | relative viability ([2]; first compound 0.253 µM) | relative viability ([2]; first compound 0.8 µM) | relative viability ([2]; first compound 2.53 µM) | relative viability ([2]; first compound 8 µM) | relative viability (AT-7519 + Palbociclib; first compound 0.01 µM) | relative viability (AT-7519 + Palbociclib; first compound 0.03162 µM) | relative viability (AT-7519 + Palbociclib; first compound 0.3162 µM) | relative viability (AT-7519 + Palbociclib; first compound 1 µM) | relative viability (AT-7519 + Dasatinib; first compound 0.01 µM) | relative viability (AT-7519 + Dasatinib; first compound 0.03162 µM) | relative viability (AT-7519 + Dasatinib; first compound 0.3162 µM) | relative viability (AT-7519 + Dasatinib; first compound 1 µM) |
| --- | --- | --- | --- | --- | --- | --- | --- | --- | --- | --- | --- | --- | --- | --- | --- | --- | --- | --- |
| HCC-827 | 1.06 | 0.95 | 0.948 | 1.02 | 1.03 | 1.01 | 0.912 | 0.934 | 0.935 | 0.927 | 0.433 | 0.494 | 0.478 | 0.398 | 0.299 | 0.298 | 0.207 | 0.249 |
| HOP-62 | 0.714 | 0.558 | 0.851 | 0.725 | 0.637 | 0.992 | 0.893 | 1.01 | 1 | 0.926 | 0.422 | 0.465 | 0.489 | 0.489 | 0.653 | 0.699 | 0.731 | 0.626 |
| IA-LM | 0.93 | 0.843 | 0.803 | 0.819 | 0.923 | 0.822 | 0.68 | 0.472 | 0.755 | 0.568 |  |  |  |  |  |  |  |  |
| LC-2-ad | 1.12 | 1.04 | 0.976 | 1.08 | 0.902 | 0.623 | 0.839 | 0.861 | 0.805 | 0.918 | 0.497 | 0.466 | 0.484 | 0.372 | 0.555 | 0.61 | 0.328 | 0.332 |
| LCLC-97TM1 | 0.815 | 0.492 | 0.525 | 0.753 | 0.395 |  | 0.194 |  | 0.196 | 0.18 | 0.228 | 0.234 | 0.215 | 0.135 | 0.911 | 0.791 | 0.763 | 0.396 |
| LCLC-103H | 1.14 | 1.14 | 1.12 | 1.15 | 1.02 | 1.2 | 1.04 | 1 | 1.15 | 1.09 | 0.513 | 0.42 | 0.432 | 0.418 | 0.533 | 0.388 | 0.451 | 0.54 |
| LK-2 |  |  |  |  |  | 0.797 | 0.724 | 0.551 | 0.573 | 0.472 | 0.783 | 0.968 | 0.675 | 0.547 | 0.288 | 0.248 |  | 0.221 |
| LOU-NH91 | 0.504 | 0.477 | 0.51 | 0.498 | 0.496 | 0.991 | 0.988 | 0.957 | 0.973 | 0.891 | 0.491 | 0.552 | 0.524 | 0.461 | 0.613 | 0.6 | 0.604 | 0.511 |
| LU99A | 1.27 | 1.13 | 1.04 | 0.986 | 1.29 | 0.613 | 0.559 | 0.552 | 0.528 | 0.522 | 0.443 | 0.411 | 0.389 | 0.329 | 0.609 | 0.574 | 0.468 | 0.536 |
| NCI-H358 |  |  |  |  |  | 0.796 | 0.682 | 0.724 | 0.74 | 0.336 | 0.138 | 0.139 | 0.108 | 0.119 | 0.15 | 0.163 | 0.161 | 0.119 |
| NCI-H522 |  |  |  |  |  |  |  |  |  |  | 0.969 | 0.967 | 0.995 | 0.788 |  | 0.864 | 0.841 | 0.956 |
| NCI-H596 | 1.43 | 1.16 | 0.974 | 1.02 | 0.769 | 1.02 | 1.07 | 1.1 | 1.14 | 1.15 |  |  |  |  | 0.586 | 0.501 | 0.629 | 0.612 |
| NCI-H1299 | 1.06 | 0.99 | 0.999 | 1.02 | 1.03 | 1.04 | 0.98 | 0.937 | 0.955 | 0.986 |  |  |  |  |  |  |  |  |
| NCI-H1395 |  |  |  |  |  | 1.11 | 1.18 | 1.34 | 1 | 1.18 | 0.561 | 0.699 | 0.573 | 0.504 | 0.418 | 0.377 | 0.408 | 0.413 |
| NCI-H1563 | 0.848 | 0.952 | 0.959 | 0.857 | 0.994 | 1.35 | 1.16 | 1.29 | 1.28 | 1.21 |  |  |  |  | 0.467 | 0.418 | 0.435 | 0.434 |
| NCI-H1623 |  |  |  |  |  |  |  |  |  |  |  |  |  |  | 0.58 | 0.646 | 0.63 | 0.604 |
| NCI-H1648 |  |  |  |  |  |  |  |  |  |  | 0.32 |  | 0.242 | 0.245 |  |  |  |  |
| NCI-H1650 | 0.196 | 0.212 | 0.22 | 0.193 | 0.202 |  |  |  |  |  | 0.284 | 0.331 | 0.27 | 0.164 | 0.32 | 0.293 | 0.22 | 0.164 |
| NCI-H1703 | 0.316 | 0.306 | 0.355 | 0.39 | 0.26 | 0.865 |  | 0.821 | 0.371 | 0.959 |  |  |  |  |  |  |  |  |
| NCI-H1793 |  |  |  |  |  | 1.29 | 0.678 |  | 1.04 | 0.964 | 0.309 | 0.299 | 0.305 | 0.285 | 0.319 | 0.361 | 0.407 | 0.247 |
| NCI-H1944 |  |  |  |  |  | 1.21 | 1.15 | 1.24 | 1.17 | 1.25 | 0.314 | 0.322 | 0.292 | 0.268 | 0.205 | 0.198 | 0.215 | 0.124 |
| NCI-H2170 |  |  |  |  |  |  |  |  |  |  | 0.418 | 0.427 | 0.345 | 0.423 | 0.593 | 0.576 | 0.626 | 0.558 |
| NCI-H2342 |  |  |  |  |  |  |  |  |  |  | 0.53 | 0.491 | 0.497 | 0.533 | 0.328 | 0.277 | 0.314 | 0.313 |
| SK-MES-1 |  |  |  |  |  | 1.17 | 1.01 | 1.05 | 1.04 | 1.06 | 0.304 | 0.31 | 0.295 | 0.204 | 0.336 | 0.31 | 0.405 | 0.217 |
| SW 900 |  |  |  |  |  |  |  |  |  |  | 0.552 | 0.595 | 0.512 | 0.463 | 0.715 | 0.568 | 0.642 | 0.254 |
